From patent US7700566B2, “Mosquito control method” (priority 2006, dated 2010)

Tested on: Aedes albopictus (Asian Tiger Mosquito) larvae
Assay: Larval development of Aedes albopictus in sugar-containing aqueous environment
Assay type: in vivo
Conditions: single sugar
Method: The combinations and ratios of sugars experimentally tested to date have been chosen to be generally equivalent to the combinations and ratios of sugars found in natural nectars. For example, a 5% tangerine nectar equivalent solution is created by dissolving approximately 6.2 grams of sucrose, approximately 1.9 grams of dextrose (glucose) and approximately 1.9 grams of fructose in 200 ml of water. This provides a solution that is approximately 3.1% sucrose, approximately 0.95% dextrose and approximately 0.95% fructose. A 5% strawberry nectar equivalent solution is created by dissolving approximately 0.7 grams of sucrose, approximately 5.3 grams of dextrose (glucose) and approximately 4.0 grams of fructose in 200 ml of water. This provides a solution that is approximately 0.35% sucrose, approximately 2.65% dextrose and approximately 2.0% fructose. A 5% white mangrove nectar equivalent solution is created by dissolving approximately 2.2 grams of sucrose, approximately 3.2 grams of dextrose (glucose) and approximately 4.6 grams of fructose in 200 ml of water. This provides a solution that is approximately 1.1% sucrose, approximately 01.6% dextrose and approximately 2.3% fructose. The three sugars sucrose, dextrose and fructose were also tested independently in 5% aqueous solutions. Lower concentrations of 0.5%, 1.0% and above of the nectar equivalent solutions and independent sugars were also prepared and tested.
In tests using Aedes albopictus (Asian Tiger Mosquito) or Aedes aegypti (Yellow Fever Mosquito) larvae, 5% solutions of each of the tangerine, strawberry and white mangrove nectar equivalent solutions were independently produced using either phosphate buffered saline or pure water in conjunction with the sugars to create the aqueous environments. Larvae were then introduced into the 5% solution aqueous environments in varying numbers. […] In a further test, liver powder was added to the various solutions above as a nutrient to spur larval development.

Row | SMILES | larvae emerged as adults (0.5% solution) | larvae emerged as adults (5% solution) | larval development past the second instar stage (5% solution)
1 | OC[C@H]1O[C@@](CO)(O[C@H]2O[C@H](CO)[C@@H](O)[C@H](O)[C@H]2O)[C@@H](O)[C@@H]1O [sucrose] | 77% | 13% | –
2 | O=C(CO)[C@@H](O)[C@H](O)[C@H](O)CO [fructose] | 100% | – | no larvae developed past the second instar stage
